Measured values from patent publication US11738099B2, “Molecular probes and methods of use” (CASE WESTERN RESERVE UNIVERSITY, priority 2014, dated 2023).
“Also recorded” adds a separate entry of the source. One block for each compound: values may come before it. Bridges are numbered along the chain shown (N, C = ends). Where no end group is shown, it is not given here.

Key:
[1] = In vivo transmetallation and urinary excretion; parameters: species or system mouse; conditions: 0.1 mmol-Gd/kg
Procedure: Balb/c mice (Charles River Laboratories, Wilmington, Mass., USA) were randomly divided into groups of ZD2-Gd(HP-DO3A) and ProHance (n=5) and placed in the metabolism cages, 48 hours prior to injection. […] Urine samples were collected at 12 h pre-injection, and then 8, 24, 48, and 72 h post-injection from the metabolic box. The collected urine samples were centrifuged at 4,000 rpm for 15 min. The concentration of Gd(III), Zn(II), Cu(H), and Ca(II) in the supernatant of the urine samples was determined by ICP-OES after appropriate dilutions.

[2] = Relaxivity at 1.5T in water, 37° C.; assay type: physicochemical
Procedure: Relaxivity is an important parameter for an MR contrast agent. It reflects how the relaxation rate of the surrounding water proton changes as a function of concentration, and it is directly associated with the agent's contrast enhancing capability during imaging. The relaxivity of the 4 contrast agents was tested at 37° C. in water and compared to Gd(HP-DO3A), Gd-DOTA and ZD2-Gd(HP-DO3A) (FIG. 26). […] Compared to Gd(HP-DO3A), Gd-DOTA, the size increase of the targeted contrast agents due to the peptides and PEG spacer could result in an increase of τR,^[42, 43] thus leading to higher relaxivities.

EDB fragment = EDB fragment (Homo sapiens, UniProt P02751); assay: Peptide ELISA of HRP-conjugated peptides on coated EDB; assay type: binding; conditions: HRP conjugates
Sequence of EDB fragment (P02751 1271-1359 limits assumed): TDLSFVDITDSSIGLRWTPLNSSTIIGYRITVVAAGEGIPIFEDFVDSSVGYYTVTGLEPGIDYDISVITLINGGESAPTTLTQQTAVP
Procedure: A linear version of ZD2 (CTVRTSADA) SEQ ID NO: 42 was synthesized so that sulfhydryl group on cysteine could be used for conjugation with maleimide-activated […] (Sigma-Aldrich). Conjugation was carried out as instructed in the manual. The product of conjugation, ZD2-HRP, was used for peptide ELISA assay after coating a 96-well plate with purified EDB. 0.5% BSA in PBS was used to block non-specific binding for later steps. 0.39 μM to 50 μM of ZD2-HRP was incubated with coated EDB for an hour followed by extensive washing with TBST (0.1%). ABTS substrate was added subsequently and allowed to react for 30 min before the absorbance of solution in each well were measured at 415 nm. Non-coated wells added with ABTS were used as blank.
Cyclic ZD2 peptide (CTVRTSADC) (SEQ ID NO: 10) was synthesized using standard solid phase peptide chemistry and was characterized by MALDI-TOF mass spectrometry (FIG. 1C). The peptide was then labeled with a fluorescence chromophore cyanine 5 (Cy5) through a short PEG linker (NH2—(CH2CH2O)—CH2CH2COOH) to give a peptide fluorescence probe ZD2-Cy5. The peptide was also conjugated to peroxidase (ZD2-HRP) and the binding affinity of the peptide to EDB fragment was determined using peptide ELISA assay.
Similarly, CERAK-HRP is synthesized as a control.

[3] = tested on: PC3 prostate tumor xenografts; assay: In vivo T1-weighted MRI at 7T, PC3 tumors; parameters: species or system mouse
Procedure: (§1) All MRI experiments were performed on a horizontal 7T Bruker scanner (Bruker Biospin Co., Billerica, Mass.). Imaging experiments were performed when the tumor size reached 5-8 mm in diameter. ZD2-Gd(HP-DO3A) was administered intravenously at the dose of 0.1 mmol/kg after acquiring pre-contrast images. Post-contrast images were obtained at 10 min interval up to 30 min. The axial slices of mouse at the tumor location were acquired using T1-weighted spin echo sequence with the following parameters: field of view (FOV): 3 cm; slice thickness: 1.2 mm; interslice distance: 1.2 mm; TR: 500 ms, TE: 8.1 ms; flip angle: 90°; average: 2; matrix size: 128×128. Contrast-to-noise ratio (CNR) at each time point was calculated by subtraction of the average signal intensity in the tumor and muscle, divided by the standard deviation of image noise. ProHance® (gadoteridol) was used as a control in the imaging experiments.

[4] = tested on: LNCaP prostate tumor xenografts; assay: In vivo T1-weighted MRI at 7T, LNCaP tumors; parameters: species or system mouse; conditions: 0.1 mmol/kg i.v., up to 30 min, 7T
Procedure: as §1

[5] = tested on: PC3-GFP flank tumor xenografts
Procedure: NIH athymic male nude mice, age 4-5 weeks, were maintained at the Athymic Animal Core Facility at Case Western Reserve University according to the animal protocols approved by the Institutional Animal Care and Use Committee (IACUC). For whole-body fluorescent imaging study, a flank tumor model was constructed. Each mouse was subcutaneously implanted in both flanks with 2×10^6 PC3-GFP cells mixed with an equal volume of in a mixture of PBS (50 μL culture medium and 50 μL PBS). Two to three weeks after inoculation, tumors reached an average size of 0.5 cm in diameter. The mice were used for imaging with Maestro FLEX In vivo Imaging System (Cambridge Research & Instrumentation, Inc. Woburn, Mass., USA) to monitor the targeting effect of ZD2 from 0 to 24 hours. Mice were intravenously injected with ZD2-Cy5 or CERAK-Cy5 (0.3 μmol/kg body weight). After 5 h, the mice were sacrificed and the tumor and various organs were imaged with the Maestro FLEX In vivo Imaging System.

[6] = tested on: human prostate tumor sections; assay: Histological staining of human prostate sections
Description: Human prostate sections were acquired from OriGene (Rockville, Md., USA). Antibodies used in this study include mouse monoclonal anti-Fibronectin antibody (BC-1, ab154210, Abcam, Cambridge, UK), Rhodamine-Red-X conjugated goat polyclonal anti-rabbit IgG (H+L) (Jackson Immuno Research Lab. West Grove, Pa., USA), and FITC conjugated goat polyclonal anti-mouse Fc (ab97264, Abcam). Frozen tissue section ([…]) imbedded in OCT was used for immunostaining and peptide staining. Paraffin embedded samples were de-paraffinized and processed with antigen retrieval using general methods. Sections were permeabilized and fixed with cold acetone followed by 0.5% BSA blocking for 1 hr at room temperature. Peptide staining was carried at the concentration of 5 uM. Slides were counter-stained with DAPI and mounted with coverslip using Prolong Gold regent (Invitrogen) before imaging. Stained tissue was imaged on an Olympus FV1000 confocal laser scanning microscope. GFP was observed using […] and the emission wavelength was read from 480 to 495 nm and represented as green. DAPI was observed using 405 nm laser and the emission wavelength was read from 450 to 470 nm and expressed as blue. Cy5.0 was observed using 635 nm laser and the emission wavelength was read from 655 to 755 nm and expressed as red.

[7] = tested on: TGFβ1-induced PC3 cancer cells; assay: In vitro cellular binding, confocal microscopy; assay type: cell-based, human
Procedure: PC3 cell line was purchased from American Type Culture Collection (ATCC, Manassas, Va., USA), and maintained in RPMI/10% FBS medium. The cells were transfected with lentivirus to express green fluorescent protein (GFP) at least 48 h prior to harvesting. To induce EMT, PC3 cells were cultured in the presence of TGFβ1 (5 ng/ml) for 5 days. For in vitro binding assay, nuclei of cells were stained with Hoechst 33342 (Life Technologies, Brooklyn, N.Y., USA) 24 h prior to adding 500 nM ZD2-Cy5. Cells were maintained in medium containing ZD2-Cy5 for 24 h and monitored with confocal microscopy. Intense shaking was avoided for live-cell binding study to retain secreted EDB-FN on the glass.

TGFβ induced 4T1 cells = assay: Binding of Cy5 probes to TGFβ induced 4T1 cells in vitro; assay type: cell-based; conditions: cell culture
Procedure: As tumor cells produce EDB-FN to promote its migration, we further validated if Cy5 labeled l-ZD2 (l-ZD2-Cy5) can bind to TGFβ induced 4T1 cells in vitro. […] To explain this, we hypothesize that in this form of cell culture, no clot formation can take action to provide binding sites for CREKA-Cy5. To validate our hypothesis, we further produced a 3D culture system that mimics the “soil” of metastatic tumor. In the 3D culture system, 4T1 cells were cultured in a microenvironment containing TGFβ, collagen, and fibrin. […] In overall, these evidences point to the conclusion that the use of EDB-FN for targeting micrometastasis may be advantageous compared with Fibronectin-Fibrin complexes in that EDB-FN appears earlier than Fibronectin-Fibrin in the pre-metastatic niche.

Compound: CNC(=O)CN(CCN(CCN(CC(=O)[O-])CC(=O)NC)CC(=O)[O-])CC(=O)[O-].[Gd+3] [Omniscan, reference compound]
urine concentration of endogenous metal ions post-injection vs pre-injection [1]: significant increase in Zn(II) concentration

Compound: GVK-(Gd-DOTA): GVK peptide, PEG spacer, p-NCS-Bz-DOTA-GA, Gd complex (GVKSYNE; also: PEG spacer, p-NCS-Bz-DOTA-GA, Gd complex)
r1 [2]: 4.3 mM⁻¹ s⁻¹

binding to EDB protein (EDB fragment): no observable binding
Compound: CERAK-HRP: control peptide CERAK conjugated to HRP (also: conjugated to HRP) [reference compound]

Compound: CREKA-Gd(HP-DO3A): fibrin-FN clot targeting contrast agent, CREKA (Cys-Arg-Glu-Lys-Ala) conjugated to Gd(HP-DO3A) (also: conjugated to Gd(HP-DO3A) (Gd complex)) [reference compound]
signal enhancement in PC3 tumors ([3]; 0.1 mmol/kg i.v., up to 30 min, 7T): significant contrast enhancement in the periphery | difference in signal enhancement between the PC3 and LNCaP tumors ([3]; mouse, in vivo): no significant difference | signal enhancement in LNCaP tumors [4]: significant contrast enhancement in the periphery

tumor binding after blocking sections with BC-1 ([6]; competitive staining): inhibited
Compound: ZD2-Cy5: cyclic ZD2 (CTVRTSADC) labeled with Cy5 through a short PEG linker (CTVRTSADC-OH; disulfide 1-9 (inferred); not fully specified (N-terminus))
accumulation in tumor, whole-body fluorescence imaging ([5]; 1.5 h after intravenous injection): significantly high accumulation | tumor accumulation, ex vivo Cy5 signal of tumor and organs ([5]; 5 hours after injection): specific accumulation | tumor to normal (T/N) ratio of Cy5 signal ([5]; maintained for up to 24 hours, compared with CERAK-Cy5): Relatively high | accumulation in the liver or lung ([5]; mouse, in vivo): Little accumulation | staining of normal glands / BPH sections ([6]; 5 uM): unstained | staining of human prostate tumor sections ([6]; high Gleason score (GS7, GS9), 5 uM): strong staining; also recorded: strong binding | binding to the periphery of PC3 cells ([7]; TGFβ1-induced (post-EMT) PC3 cells, vs untreated cells): substantially more binding; also recorded: strong binding | binding to PC3 cells ([7]; uninduced cells): non-binding

Compound: ZD2-(Gd-DOTA): ZD2 peptide, PEG spacer, p-NCS-Bz-DOTA-GA, Gd complex (TVRTSAD; also: PEG spacer, p-NCS-Bz-DOTA-GA, Gd complex; listed as Homo sapiens)
r1 [2]: 4.1 mM⁻¹ s⁻¹

Compound: CREKA-Cy5: Cy5 probe of CREKA peptide, targets fibronectin-fibrin complexes (also: Cy5 conjugate) [reference compound]
binding to induced 4T1 cells (TGFβ induced 4T1 cells): no binding

Compound: IGK-(Gd-DOTA): IGK peptide, PEG spacer, p-NCS-Bz-DOTA-GA, Gd complex (IGKTNTL; also: PEG spacer, p-NCS-Bz-DOTA-GA, Gd complex)
r1 [2]: 4.6 mM⁻¹ s⁻¹

r1 [2]: 2.9 mM⁻¹ s⁻¹
Compound: O=C([O-])CN1CCN(CC(=O)[O-])CCN(CC(=O)O)CCN(CC(=O)[O-])CC1.[Gd+3] [Gd-DOTA, reference compound]
